What was measured:
[1] = molecular target: T1, Protein-arginine deiminase type-4 (Homo sapiens, UniProt Q9UM07); assay: Inhibition of PAD4 by ABPP-based assay
[2] = molecular target: T1, Protein-arginine deiminase type-4; assay: Inhibition of PAD4 measured by slope plot of Lineweaver-Burke analyses
[3] = molecular target: T1, Protein-arginine deiminase type-4; assay: Inhibition of PAD4 measured by intercept plot of Lineweaver-Burke analyses

T1 sequence (Q9UM07 whole entry): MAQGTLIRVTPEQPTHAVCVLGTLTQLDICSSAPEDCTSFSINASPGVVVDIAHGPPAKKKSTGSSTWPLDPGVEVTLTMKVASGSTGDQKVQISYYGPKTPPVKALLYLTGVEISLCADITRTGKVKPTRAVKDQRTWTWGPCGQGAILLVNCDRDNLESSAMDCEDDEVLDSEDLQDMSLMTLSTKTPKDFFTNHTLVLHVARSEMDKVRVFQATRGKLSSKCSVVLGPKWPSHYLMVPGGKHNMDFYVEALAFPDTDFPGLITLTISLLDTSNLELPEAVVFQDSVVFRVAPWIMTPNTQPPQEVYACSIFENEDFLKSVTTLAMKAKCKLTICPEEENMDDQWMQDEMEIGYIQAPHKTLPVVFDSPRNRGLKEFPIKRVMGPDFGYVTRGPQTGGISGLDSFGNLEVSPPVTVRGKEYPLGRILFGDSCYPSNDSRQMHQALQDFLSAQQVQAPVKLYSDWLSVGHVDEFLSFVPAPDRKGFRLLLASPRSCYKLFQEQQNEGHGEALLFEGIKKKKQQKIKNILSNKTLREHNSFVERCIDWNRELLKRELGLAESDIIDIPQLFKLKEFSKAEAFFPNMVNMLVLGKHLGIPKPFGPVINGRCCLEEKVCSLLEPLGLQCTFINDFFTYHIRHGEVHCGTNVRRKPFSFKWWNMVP

Compound | IC50 [1] [µM] | Ki [2] [µM] | Ki [3] [µM]
CC[C@H]1OC(=O)[C@H](C)[C@@H](O[C@H]2C[C@@](C)(OC)[C@@H](O)[C@H](C)O2)[C@H](C)[C@@H](O[C@@H]2O[C@H](C)C[C@H](N(C)C)[C@H]2O)[C@](C)(O)C[C@@H](C)CN(C)[C@H](C)[C@@H](O)[C@]1(C)O [AZITHROMYCIN] | > 10000 | – | –
CN(C)[C@@H]1C(O)=C(C(N)=O)C(=O)[C@@]2(O)C(O)=C3C(=O)c4c(O)cccc4[C@@](C)(O)[C@H]3C[C@@H]12 [TETRACYCLINE] | 780 | – | –
Cn1cnc([N+](=O)[O-])c1Sc1ncnc2nc[nH]c12 [AZATHIOPRINE] | 8100 | – | –
CN(Cc1cnc2nc(N)nc(N)c2n1)c1ccc(C(=O)N[C@@H](CCC(=O)O)C(=O)O)cc1 [METHOTREXATE] | > 10000 | – | –
Cc1cc(NS(=O)(=O)c2ccc(N)cc2)no1 [SULFAMETHOXAZOLE] | > 10000 | – | –
CN(C)c1ccc(O)c2c1C[C@H]1CC3[C@H](N(C)C)C(O)=C(C(N)=O)C(=O)C3(O)C(O)=C1C2=O (single isomer, unassigned) [MINOCYCLINE] | 620 | 180 | 630
Cc1oncc1C(=O)Nc1ccc(C(F)(F)F)cc1 [LEFLUNOMIDE] | 2400 | – | –
